Paper PMC6009892, “A novel series of pyrazole-platinum(II) complexes as potential anti-cancer agents that induce cell cycle arrest and apoptosis in breast cancer cells” (Journal of Enzyme Inhibition and Medicinal Chemistry, 2018)

Legend:
[1] = test system: MDA-MB-231 breast cancer cells; assay: Mitochondrial membrane potential JC-1, MDA-MB-231; type: cell-based, human; details: MDA-MB-231, 20 μM, 24 h; untreated 5.8%
Method: Disruption of the MMP was assessed using the lipophilic cationic probe 5,5′,6,6′-tetrachloro-1,1′,3,3′-tetraethylbenzimidazolcarbocyanine iodide (JC-1 MitoScreen kit; BD Biosciences Systems, San Jose, CA), as described previously. Briefly, unfixed cells were washed and re-suspended in PBS supplemented with 10 µg/ml of JC-1. Cells were then incubated for 15 min at room temperature in the dark, washed, and re-suspended in PBS for immediate BD FACSCanto II flow cytometry analysis. The percentage of cells with disrupted MMP was calculated using FACSDiva software (both from BD Biosciences Systems, San Jose, CA).

[2] = test system: human G1/S-specific cyclin D1 in MDA-MB-231 cells; assay: Cyclin D1 ELISA in cell lysates, MDA-MB-231; type: cell-based; details: MDA-MB-231, 20 μM, 24 h
Method: Cell lysates: Briefly, trypsinised cells were washed three times with cold PBS and centrifuged at 1000 g for 5 min at 4 °C. The cells (1 × 10^6) were suspended in lysis buffer for whole cell lysates. After centrifugation, the supernatants were frozen immediately at −70 °C. The concentration of human G1/S-specific cyclin D1 was measured. Cells without addition of compounds were treated as controls.
Determination of human G1/S-specific cyclin D1: The high sensitivity assay kit (EIAab) was used to determine the concentration of human G1/S-specific cyclin D1 in cell lysates. The microtiter plate provided in this kit has been pre-coated with an antibody specific to cyclin D1. Standards and samples were added to the appropriate microtiter plate wells. After 2 h of incubation at 37 °C, the plate was incubated with biotin-conjugated antibody for 1 h at 37 °C. Then microplate wells were aspirated and washed three times and then incubated with avidin conjugated to horseradish peroxidase (HRP). Then, a TMB substrate solution was added to each well. […] The enzyme–substrate reaction was terminated by the addition of a sulfuric acid solution and the color change was measured spectrophotometrically at a wavelength of 450 nm ± 2 nm. The concentration of cyclin D1 in the samples was determined by comparing the O.D. of the samples to the standard curve.

| SMILES | percent of cells with decrease ΔΨm [1] [%] | concentration of cyclin D1 [2] [ng/mL] |
| --- | --- | --- |
| Cc1cc(C)[n+]([Pt-2]2([n+]3c(C)cc(C)n3CO)[N](c3ccc(C(=N)N)cc3)N=[N+](c3ccc(C(=N)N)cc3)[Pt-2]([n+]3c(C)cc(C)n3CO)([n+]3c(C)cc(C)n3CO)[N](c3ccc(C(=N)N)cc3)N=[N+]2c2ccc(C(=N)N)cc2)n1CO.Cl.Cl.Cl.Cl.O.O [PtPz1, [Pt2(N-hydroxymethyl-3,5-dimethylpyrazole)4(berenil)2]·4HCl·2H2O] | 90.7 |  |
| Cc1ccn[nH]1.Cc1ccn[nH]1.Cc1ccn[nH]1.Cc1ccn[nH]1.Cl.Cl.Cl.Cl.N=C(N)c1ccc(N=N[N]([Pt])c2ccc(C(=N)N)cc2)cc1.N=C(N)c1ccc(N=N[N]([Pt])c2ccc(C(=N)N)cc2)cc1.O.O [PtPz5, [Pt2(5-methylpyrazole)4(berenil)2]·4HCl·2H2O] |  | 0.7 |
